Data on 10 compounds can be found in PMC13499021, “Cellular Assays for Dynamic Quantification of Deubiquitinase Activity and Inhibition” (Journal of molecular biology, 2023).

Where “and” joins values, the source holds several entries; their conditions need not be identical. Equal values may be shown once. Read-outs that look alike come from different tables or passages of the source. Where a SMILES comes first, the peptide text is derived from it. The star is where a group is joined. Cbz = O=C(OCc1ccccc1)*

In test [1] the target is T1, GFPNb^R35Q-USP7 (Homo sapiens, UniProt Q93009). The class given is cell-based.
For the next test, the system named is KF LSCC cells. Set-up: method as in PMID 34636321. As to conditions: cited from earlier work.
In another test the test system is GFPNb^R35Q-USP28. Format: cell-based.
A further test concerns GFPNb^E103Q-USP7. Format: cell-based.
Test [2] deals with GFPNb^R35Q-USP7. The class given is cell-based. As to conditions: read-out: cellular IC50.
For test [3], the system named is GFPNb^R35Q-USP7. Format: cell-based.
The next test relates to MM.1S cells. The settings on record: read-out: IC50, block of proliferation; cited from earlier work.
For a further test, the system named is USP7. The settings on record: cited from earlier work.
A further test relates to GFPNb^WT-USP7. The class given is cell-based.
The next test deals with proteasome. Format: cell-based.
In test [4] the target is R-EGFP reporter (enhanced green fluorescent protein with an N-terminal arginine, made as the Ub-R-EGFP fusion).
The test system of a further test is SARS2 PL^pro. The settings on record: read-out: inhibitory concentrations (IC50); cited from earlier work.
A further test deals with SARS2-PL^pro. The class given is cell-based.
For test [5], the system named is homologous enzyme (PL^pro) from NL63. The settings on record: cited from earlier work.
Test [6] deals with homologous enzyme (PL^pro) from MERS. The settings on record: cited from earlier work.
The test system of the next test is purified USP7. The settings on record: purified USP7 and Ub-AMC substrate; reported; cited from earlier work.
Test [7] concerns the target T1, GFPNb^R35Q-USP7. Format: cell-based. The source holds these as a separate data set.
Setting [8] is: 10 μM compound for 16 h, USP7 fused to WT GFP nanobody.

T1 sequence (Q93009 with tags, fused parts or gaps limits assumed, stated change not applied): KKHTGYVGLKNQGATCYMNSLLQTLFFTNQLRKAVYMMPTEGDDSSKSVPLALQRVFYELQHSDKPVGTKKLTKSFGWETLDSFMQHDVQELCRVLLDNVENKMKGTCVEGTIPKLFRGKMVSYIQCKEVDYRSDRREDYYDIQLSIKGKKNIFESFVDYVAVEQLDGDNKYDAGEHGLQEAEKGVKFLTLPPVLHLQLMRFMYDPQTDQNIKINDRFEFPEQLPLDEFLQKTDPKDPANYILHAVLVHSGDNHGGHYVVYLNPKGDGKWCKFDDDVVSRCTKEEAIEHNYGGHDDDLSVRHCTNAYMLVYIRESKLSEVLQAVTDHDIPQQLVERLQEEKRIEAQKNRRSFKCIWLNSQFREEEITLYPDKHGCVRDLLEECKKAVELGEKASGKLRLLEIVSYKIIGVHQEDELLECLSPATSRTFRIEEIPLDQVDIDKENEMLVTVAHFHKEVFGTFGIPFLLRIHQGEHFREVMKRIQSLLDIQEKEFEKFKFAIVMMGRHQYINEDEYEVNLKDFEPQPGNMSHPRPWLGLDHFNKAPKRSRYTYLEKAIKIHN

As for `Cc1ccc2c(N)c(C(=O)N[C@H]3CCc4cc(N5CC6CCC(C5)N6)ccc4C3)sc2n1` [FT206], the “inhibition” value on GFPNb^R35Q-USP7 [1] is on record as “no inhibition”. The “proliferation of KF LSCC cells” value with KF LSCC cells is reported as “inhibit proliferation”. Besides, in the test with GFPNb^R35Q-USP28, the “dose-dependence of EGFP degradation rate” value was “little dose-dependence”, the “inhibition” value was “potent inhibition” and the “rate of degradation of the EGFP reporter” value is listed as “fastest degradation”. The IC50 in the test with GFPNb^R35Q-USP28 (read-out: cellular IC50) was 104 nM and ~104 nM.
`O=C(C[C@@H](C(F)F)n1ccc(F)n1)N1CCC(O)(Cn2cnc3c(cnn3-c3ccc(F)cc3)c2=O)CC1` [FT671]: the “change in EGFP levels” value with GFPNb^E103Q-USP7 and in the test with GFPNb^R35Q-USP7 [3] was “substantial decrease” each time. The IC50 in the test with GFPNb^R35Q-USP7 [2] was 14 nM; in the test on MM.1S cells it was 33 nM; with USP7, 52 nM. The “change in EGFP fluorescence levels” value in the test with GFPNb^WT-USP7 was “weak (if any) decrease”.
On to `CC(C)C[C@@H](C=O)NC(=O)[C@H](CC(C)C)NC(=O)[C@H](CC(C)C)NC(=O)OCc1ccccc1` [MG132] (Cbz-Leu-Leu-Leu-aldehyde), for which the “elevation of EGFP level over baseline” value with proteasome is recorded as “over 50 fold”.
On to `CC(=O)c1cc([N+](=O)[O-])c(Sc2ccc(F)cc2F)s1` [P22077], for which, in the test with GFPNb^E103Q-USP7, the “change in EGFP levels” value is reported as “no inhibitory activity”. Besides, the “change in EGFP fluorescence levels” value in the test on GFPNb^WT-USP7 (setting [8]) is “no inhibitory activity”.
Regarding GFPNb E103Q-mCherry (VHH), the relative stabilization of EGFP in 293T-Ub-R-C3 cells (flow cytometry), WT nanobody-mCherry normalized to 1 (fold decrease against the WT nanobody) in test [4] came to 100.
As to GFPNb E103Q-mCherry-USP7 fusion, in test [4], the relative USP7 activity (EGFP stabilization, flow cytometry) in transfected 293T-Ub-R-C3 cells, against the WT nanobody fusion (fold less than the WT Nb fusion) stood at 3.
On to GFPNb R35Q-mCherry (VHH), for which the relative stabilization of EGFP in 293T-Ub-R-C3 cells (flow cytometry), WT nanobody-mCherry normalized to 1 (fold decrease against the WT nanobody) in [4] was 50.
As to GFPNb R35Q-mCherry-USP7 fusion, the relative USP7 activity (EGFP stabilization, flow cytometry) in transfected 293T-Ub-R-C3 cells, against the WT nanobody fusion (fold less than the WT Nb fusion) in test [4] came to 2.
Take GRL0617: the IC50 with SARS2 PL^pro was 2100 to 2300 nM. For the same compound, the “start of time dependent decrease in EGFP signal post-treatment” value in the test on SARS2-PL^pro came out at 2 h. The “activity against homologous enzyme” value in [5] and in test [6] was “inactive” throughout.
XL177A: the “change in EGFP levels” value in the test with GFPNb^E103Q-USP7 and at GFPNb^R35Q-USP7 [7] was “substantial decrease” each time. Besides, the values for the IC50 on GFPNb^R35Q-USP7 [1] (read-out: cellular IC50) and with purified USP7 were 192 nM and 0.34 nM, respectively. In the test with GFPNb^WT-USP7 (setting [8]), the “change in EGFP fluorescence levels” value is on record as “weak (if any) decrease”.
